Source: patent US11974990B2, “TXNIP-TRX complex inhibitors and methods of using the same” (City of Hope, priority 2018, dated 2024)
Where two headings read alike, the source gives them in different places.

Assays:
[1] = system: TXNIP; details: as reported in the literature, cited from earlier work
[2] = target: T1, TXNIP-TRX complex (Homo sapiens, UniProt Q9H3M7); test: Co-IP of TXNIP with TRX in THP1 monocytes treated with compounds under high glucose; type: cell-based; details: THP1 cells, compounds added to cells in culture overnight, glucose to 25 mM, 72-96 h; anti-TRX IP
T1 construct: Co-immunoprecipitation (Co-IP) of TXNIP with TRX in THP 1 monocytes cells treated with compounds under high glucose condition; endogenous in cells; host or cells: THP1 human monocytes cultured in 25 mM glucose
T1 sequence (Q9H3M7 1-391): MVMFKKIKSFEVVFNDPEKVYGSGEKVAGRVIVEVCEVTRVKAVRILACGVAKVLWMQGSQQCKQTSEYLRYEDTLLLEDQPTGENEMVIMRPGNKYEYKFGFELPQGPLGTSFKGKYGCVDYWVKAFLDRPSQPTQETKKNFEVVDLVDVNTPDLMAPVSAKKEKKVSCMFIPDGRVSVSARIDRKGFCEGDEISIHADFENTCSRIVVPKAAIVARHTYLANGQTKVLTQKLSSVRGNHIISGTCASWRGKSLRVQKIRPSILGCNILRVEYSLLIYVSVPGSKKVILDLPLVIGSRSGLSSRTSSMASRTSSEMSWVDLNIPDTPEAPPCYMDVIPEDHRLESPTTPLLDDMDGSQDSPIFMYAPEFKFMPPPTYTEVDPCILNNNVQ
Procedure: FIGS. 4A-4B. Co-IP with anti-TRX in THP 1 cells treated with compounds under high glucose condition. THP1 cells were treated by 10 uM compounds over night, then glucose was added up to 25 mM. The cells were cultured for 72-96 h. Cell extracts were prepared using cell extract buffer (Thermo Fisher Scientific) and Co-IP were performed with mouse anti-TRX (abcam).
Assay 1: Co-immunoprecipitation (Co-IP) of TXNIP with TRX in THP 1 monocytes cells treated with compounds under high glucose condition. In this assay, we looked for compounds that can interfere with the interaction between TXNIP and TRX in THP-1 monocytes treated with HG. So here compounds are added to cells in culture. […] So we picked the candidates only if the results are repeatable.
Co-IP with compounds treated THP1 under high glucose condition. THP1 cells were treated with compounds (2.5 uM) overnight and glucose was add to 25 mM and culture for 3-5 days, then coIP were carried using co-IP protocol.
(§1) 1. Transfer the cultured cells from the culture dish to a 15-mL conical tube. 2. Centrifuge at 500×g for 2 min at 4° C. and remove the supernatant. 3. Wash with ice-cold PBS and centrifuge at 500×g for 2 min at 4° C. Remove the supernatant. 4. Repeat Step 3 twice.
5. Resuspend the cell pellet in ice-cold cell lysis buffer (1 mL per 1×10^7 cells) and incubate on ice for 10 min. 6. Sonicate cells in ice bath three times for 5 second pulses each. 7. Centrifuge at 13,000×g at 4° C. for 10 min, and transfer the supernatant to a fresh tube. Store the tube on ice for further use, or for long storage at −80° C.
8. Resuspend the magnetic beads by pipetting up and down for several times. 9. Transfer 20 μL of bead slurry to a fresh tube. Place the tube in a magnetic separation rack […]. Carefully remove the supernatant once the solution is clear. 10. […]
(§2) Note: Pre-clearing the lysate is recommended to reduce the non-specific binding. However, if the protein is detected by western blotting, pre-clearing may not be necessary unless a contaminating protein is interfering with visualization of the protein of interest. […]

[3] = target: T1, TXNIP-TRX complex; test: Co-IP using extracts from high glucose treated THP1 cells in the presence of compounds; type: biochemical; details: extracts of THP1 cells treated with 25 mM glucose 3 days; compounds added to extract (5 uM)
Procedure: Assay 2: Co-IP using extracts from THP 1 cells treated high glucose and in the presence of compounds. In this assay, TXNIP is already highly expressed (because the cells are treated with HG), we assume there is high concentration of TXNIP/TRX complexes in the cell extract. Co-IPs were done in these extracts through adding TRX antibody and compounds. If a compound is able to break the (pre-formed) TXNIP/TRX complex, there will be a reduced signal (band intensity) in the assay.
Co-IP with THP1 high glucose treated extract in the presence of the compounds. THP1 cells were treated with 25 mM glucose for 3 days, the cell extract were prepared. Them 300 ul extract were used for TP. Compounds were added to 5 uM Co-IP were followed according to the Co-IP protocol.
as §1
5. Resuspend the cell pellet in ice-cold cell lysis buffer (1 mL per 1×10^7 cells) and incubate on ice for 10 min. 6. […]
as §2

[4] = system: TXNIP mRNA; test: TXNIP mRNA expression (RT-PCR) in THP1 cells under 25 mM glucose; type: cell-based, human; details: THP1, 25 mM glucose, 5 uM compound, 72 h / three days (FIG. 13)
Procedure: FIGS. 9A-9B. FIG. 9A. […] THP1 cells were cultured in 25 mM glucose with the indicated concentrations of C1 for 72 h. Cell were collected for total RNA preparation. RT-PCR were performed and data shown are the mean+SEM from triplicates. Statistical analysis was performed using one-way ANOVA, *<0.0001. FIG. 9B. […] THP1 cells were cultured in 25 mM glucose and C1 (uM) as indicated for 72 hours and collected for total RNA preparation. RT-PCR was performed. Data shown are the mean+SEM from triplicates. Statistical analysis was performed using one-way ANOVA: *<0.02; **<0.0001.
FIG. 13. C1 analogs affects TXNIP mRNA expression in THP1 cells. THP1 cells were cultured in 25 mM glucose with 5 uM of compounds for 72 h. Total RNA was collected and RT-PCR was performed in triplicate and data shown are the mean+SEM. Statistical analysis was performed using one-way ANOVA: *<0.0001.
RNA extraction and quantitative RT-PCR. RNA was extracted using the Direct-zol™ RNA MiniPrep Plus (Zymo Research). […] Diluted cDNA was quantified using real-time PCR performed with Power SYBR Green qPCR MasterMix (Applied Biosystem) and 7500 real-time PCR system (Applied Biosystems). […]
RNA extraction and quantitative RT-PCR. […] Diluted cDNA was quantified using real-time PCR performed with Power SYBR Green qPCR MasterMix (Applied Biosystem) and 7500 real-time PCR system (Applied Biosystems). […]

Structure (SMILES)	TXNIP expression [1]	TXNIP expression ([1]; listed as Metformin)	HG-induced TXNIP-TRX co-IP band intensity [2]	effect on pre-formed TXNIP/TRX complex (co-IP band intensity) [3]	TXNIP mRNA expression [4]
CN(C)C(=N)N=C(N)N [metformin, reference compound]	reduce TXNIP expression	can reduce the expression of TXNIP through the AMPK pathway	reduces the intensity of the band showing TXNIP-TRX binding	does not have any effect on TXNIP/TRX complex	
CC(=O)Nc1ccc(NC(=O)C(C)N2C(=O)c3ccncc3C2=O)cc1 (centres unmarked) [Compound A31]					displayed significant inhibitory effects on TXNIP mRNA expression
